According to patent publication US20250152559A1, “METHODS FOR TREATING MYC-AMPLIFIED CANCER” (The Governing Council of the University of Toronto, priority 2023, published 2025):

Legend:
Assay in all cases: PrestoBlue cell viability, 72-hour treatment, limiting dilution
MED411-FHTC = type: cell-based; conditions: Homo sapiens, G3MB-MYC, read-out: Brequinar IC50
Method: (§1) SU_MB002, NSC194, NSC197 and NSC201FT, MBT375 and MED411FHTC were maintained in Neurocult Complete (NCC) media (Stem Cell Technologies; catalogue #05751). D425 and D458 were maintained in Dulbecco's […] (DMEM) containing 10% fetal bovine serum (FBS). HD-MB03 were maintained in NCC containing 10% FBS. All cell lines were conditioned in NCC for a minimum of 48 hours before experimentation. SU_MB002 and HD-MB03 G3MB-MYC PDOX were obtained from collaborators as kind gifts and are frequently passaged in vivo. SU_MB002, a treatment-refractory group 3 MB acquired at autopsy was received from Dr. Yoon-Jae Cho. Dr. Till Milde provided HD-MB03, a treatment-naïve group 3 MBs. ICB1299 group 4 MB cells were obtained as a gift from Silvia Marino's laboratory^62. MBT375 was established in-house from a surgical specimen of group 4 MB, which was engrafted in the cerebellum of mice for serial propagation. Nanostring genotyping was used to confirm group 4 medulloblastoma identity. MED411FHTC PDOX were procured from Dr. Olson's brain tumor research lab. D425 and D458 were obtained from the ATCC. All cell lines were fingerprint verified by short tandem repeat (STR) profiling. NSC194, NSC197 and NSC201FT were derived in-house from donor fetal brain tissues^63.
(§2) For assessment of viability, cells were seeded into 96-well plates at a density of 1,000 cells per well. Viability was measured by adding PrestoBlue™ diluted 1:10 (ThermoFisher Scientific; Catalogue #A13261) followed by a 4-hour incubation. Relative fluorescence intensity was determined via background correction. To assess tumorsphere forming capacity, cells were seeded at a low density (200 cells per well) and incubated for 3-5 days. Tumorspheres were manually counted thereafter.

HD-MB03 = type: cell-based; conditions: Homo sapiens; HD-MB03, G3MB-MYC; read-out: Brequinar IC50
Method: as §1, §2

D425 = type: cell-based; conditions: Homo sapiens; D425, G3MB-MYC; read-out: Brequinar IC50
Method: as §1, §2

D458 = type: cell-based; conditions: Homo sapiens; D458, G3MB-MYC; read-out: Brequinar IC50
Method: as §1, §2

SU_MB002 = type: cell-based, human; conditions: for potency on tumor cell viability: SU_MB002 tumor cells
Method: as §1, §2

SMILES	IC50 (MED411-FHTC)	IC50 (HD-MB03)	IC50 (D425)	IC50 (D458)	IC50 (SU_MB002; Homo sapiens, SU_MB002, G3MB-MYC, read-out: Brequinar IC50)	tumor cell proliferation and viability with uridine supplementation (SU_MB002; SU_MB002, media with uridine hydrochloride (100 μM))	potency on tumor cell viability (SU_MB002)
Cc1c(-c2ccc(-c3ccccc3F)cc2)nc2ccc(F)cc2c1C(=O)O [Brequinar]	137 nM	54.4 nM	122 nM	110 nM	302 nM	rescues	nanomolar range
COc1ccc([C@H]2c3[nH]c4ccc(Cl)cc4c3CCN2C(=O)Oc2ccc(Cl)cc2)cc1 [PTC299]	–	–	–	–	–	–	nanomolar range
